Source: patent EP3263567A1, “CARBOXAMIDE-SUBSTITUTED PYRAZOLES AND TRI(HETERO)ARYL-PYRAZOLES FOR USE IN METHODS OF TREATING AND / OR PREVENTING CARDIOVASCULAR DISEASES AND / OR COMORBIDITIES THEREOF” (AiCuris Anti-infective Cures GmbH, priority 2016, dated 2018)

Experiments:
[1] = target: T1, Kv1.5 (Homo sapiens, UniProt P22460); assay: Whole-cell patch-clamp, Kv1.5 currents in stably transfected CHO cells; format: cell-based; conditions: summary statement
T1 construct: expressed in transfected cells; host or cells: CHO (ATCC CCL-61), stably transfected; selection with Hygromycin
Description: (§1) [drawing 92] i.e. 4-[5-[3-Chloro-5-(trifluoromethoxy) phenyl]-1-(pyridin-3-yl)-1H-pyrazol-3-yl]-5,6-dihydro-7H-pyrrolo[3,4-d]pyrimidin-7-one, was tested for its effects on human Nav1.5, Cav1.2, Kv1.5, and HCN4 currents recorded from stably transfected CHO cells. The effect of four concentrations of this compound on these currents was investigated.
(§2) The whole-cell patch-clamp technique was used to investigate the effect of Compound A on the currents of Nav1.5, Kv1.5, Cav1.2 and HCN4 channels, expressed in CHO cells (ATCC, CCL-61). Compound A was tested at concentrations of 200 nM, 600 nM, 2000 nM and 6000 nM. […]
(§3) The 35 mm culture dishes upon which cells were seeded at a density allowing single cells to be recorded were placed on the dish holder of the microscope and continuously perfused (at approximately 1 mL/min) with the bath solution described in section 4.7. […]
(§4) As soon as a stable seal could be established outward tail currents were measured upon pulses described in the Table below: […]
(§5) Values in Ampere (A) of the peak amplitudes of outward tail currents were generated for each voltage step. […] The recorded current amplitudes at the steady state level of current inhibition were compared to those from control conditions measured in the pre-treatment phase of the same cell. The amount of current block was calculated as percentage of control. […]

[2] = target: T2, Cav1.2 (Homo sapiens, UniProt Q13936); assay: Whole-cell patch-clamp, Cav1.2 currents in stably transfected CHO cells; format: cell-based; conditions: summary statement
T2 construct: expressed in transfected cells; host or cells: CHO (ATCC CCL-61), stably transfected; selection with Hygromycin, Geneticin and Zeocin
Description: as §1, §2, §3, §4, §5

[3] = pKa of compound A; format: physicochemical
[4] = tested on: Beagle dogs; assay: 4-week beagle dog experiment, toxicity observations; format: in vivo
Description: [drawing 93] i.e. 4-[5-[3-Chloro-5-(trifluoromethoxy)phenyl]-1-(pyridin-3-yl)-1H-pyrazol-3-yl]-5,6-dihydro-7H-pyrrolo[3,4-d]pyrimidin-7-one, was administered in a 4-week beagle dog experiment with integrated non-invasive telemetric electrocardiography (ECG) measurements for determining its cardiovascular effects; specifically its effects on the heart rate.
32 Beagle dogs (16 males and 16 females) with parameters in the normal range were tested for cardiovascular effects of Compound A administration and divided into the study groups indicated below.
Duration of study: • 4 acclimatization weeks • 4 test weeks • 4 additional test weeks for the animals scheduled for the recovery period.
The test compound A-formulation of the appropriate concentration was administered by oral administration at a constant administration volume/kg b.w.
• Groups 1 and 4: Twice daily at an 8-hour interval for 28 consecutive days. • Groups 2 to 3: Once daily for 28 consecutive days.
The animals were observed individually before and after dosing at each time of dosing for any signs of behavioural changes, reaction to treatment or illness.
Kennel side observations included skin/fur, eyes, mucous membranes, respiratory and circulatory systems, somatomotor activity and behaviour patterns. The onset, intensity, and duration of any signs observed were recorded.

T2 sequence (Q13936 whole entry): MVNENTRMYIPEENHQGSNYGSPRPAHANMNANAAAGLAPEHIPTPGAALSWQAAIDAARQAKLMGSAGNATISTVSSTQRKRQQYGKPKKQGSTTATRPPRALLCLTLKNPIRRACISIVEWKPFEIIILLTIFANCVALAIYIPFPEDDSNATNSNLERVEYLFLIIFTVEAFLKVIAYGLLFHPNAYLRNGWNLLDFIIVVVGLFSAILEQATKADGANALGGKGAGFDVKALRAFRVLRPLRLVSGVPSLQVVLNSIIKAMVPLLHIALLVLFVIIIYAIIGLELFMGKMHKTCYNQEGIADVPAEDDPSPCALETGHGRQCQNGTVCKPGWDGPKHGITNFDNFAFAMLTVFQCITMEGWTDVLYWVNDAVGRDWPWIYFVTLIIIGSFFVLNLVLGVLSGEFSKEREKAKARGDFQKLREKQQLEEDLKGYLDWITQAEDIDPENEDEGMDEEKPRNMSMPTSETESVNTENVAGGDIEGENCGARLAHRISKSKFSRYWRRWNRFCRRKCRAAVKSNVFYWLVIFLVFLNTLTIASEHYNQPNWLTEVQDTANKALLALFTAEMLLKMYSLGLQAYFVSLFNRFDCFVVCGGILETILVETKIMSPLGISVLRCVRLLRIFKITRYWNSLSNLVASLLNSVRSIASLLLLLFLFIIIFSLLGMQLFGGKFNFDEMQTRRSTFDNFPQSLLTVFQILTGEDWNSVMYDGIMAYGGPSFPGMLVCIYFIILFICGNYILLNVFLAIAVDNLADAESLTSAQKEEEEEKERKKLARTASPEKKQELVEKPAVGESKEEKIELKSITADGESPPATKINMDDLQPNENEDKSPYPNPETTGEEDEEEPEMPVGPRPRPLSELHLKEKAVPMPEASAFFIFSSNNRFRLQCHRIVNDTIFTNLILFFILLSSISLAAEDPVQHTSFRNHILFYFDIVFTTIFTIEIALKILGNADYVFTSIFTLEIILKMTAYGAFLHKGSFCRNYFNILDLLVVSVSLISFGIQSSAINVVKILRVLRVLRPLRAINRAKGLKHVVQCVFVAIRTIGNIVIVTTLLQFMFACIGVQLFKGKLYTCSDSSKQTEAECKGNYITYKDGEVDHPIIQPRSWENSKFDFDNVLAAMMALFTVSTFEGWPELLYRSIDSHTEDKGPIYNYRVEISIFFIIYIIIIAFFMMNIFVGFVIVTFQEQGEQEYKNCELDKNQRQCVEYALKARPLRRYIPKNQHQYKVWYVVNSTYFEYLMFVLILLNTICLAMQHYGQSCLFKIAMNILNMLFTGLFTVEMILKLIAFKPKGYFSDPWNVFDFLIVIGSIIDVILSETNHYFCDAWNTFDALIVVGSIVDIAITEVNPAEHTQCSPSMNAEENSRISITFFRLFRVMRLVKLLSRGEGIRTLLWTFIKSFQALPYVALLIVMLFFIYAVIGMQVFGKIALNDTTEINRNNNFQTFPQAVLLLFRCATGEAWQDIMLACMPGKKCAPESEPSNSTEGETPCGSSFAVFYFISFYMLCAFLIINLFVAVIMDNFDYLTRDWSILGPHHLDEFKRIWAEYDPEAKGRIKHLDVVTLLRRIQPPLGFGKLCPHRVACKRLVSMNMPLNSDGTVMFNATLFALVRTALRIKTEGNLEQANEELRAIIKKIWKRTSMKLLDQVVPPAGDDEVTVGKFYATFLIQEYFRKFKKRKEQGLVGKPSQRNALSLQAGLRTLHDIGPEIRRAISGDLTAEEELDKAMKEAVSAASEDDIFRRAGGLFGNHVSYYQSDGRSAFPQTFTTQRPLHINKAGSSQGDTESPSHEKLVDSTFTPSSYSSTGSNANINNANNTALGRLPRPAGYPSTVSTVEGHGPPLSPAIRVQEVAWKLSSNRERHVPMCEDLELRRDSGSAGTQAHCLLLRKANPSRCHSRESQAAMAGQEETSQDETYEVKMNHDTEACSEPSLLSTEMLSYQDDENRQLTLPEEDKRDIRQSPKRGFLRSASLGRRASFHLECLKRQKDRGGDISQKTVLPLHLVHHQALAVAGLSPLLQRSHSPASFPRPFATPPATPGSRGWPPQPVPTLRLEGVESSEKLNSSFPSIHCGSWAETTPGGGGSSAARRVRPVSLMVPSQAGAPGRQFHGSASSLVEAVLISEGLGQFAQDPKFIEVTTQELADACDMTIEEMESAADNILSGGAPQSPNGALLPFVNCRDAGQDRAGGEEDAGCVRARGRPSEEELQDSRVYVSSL
T2 sequence (Q08289 whole entry partner): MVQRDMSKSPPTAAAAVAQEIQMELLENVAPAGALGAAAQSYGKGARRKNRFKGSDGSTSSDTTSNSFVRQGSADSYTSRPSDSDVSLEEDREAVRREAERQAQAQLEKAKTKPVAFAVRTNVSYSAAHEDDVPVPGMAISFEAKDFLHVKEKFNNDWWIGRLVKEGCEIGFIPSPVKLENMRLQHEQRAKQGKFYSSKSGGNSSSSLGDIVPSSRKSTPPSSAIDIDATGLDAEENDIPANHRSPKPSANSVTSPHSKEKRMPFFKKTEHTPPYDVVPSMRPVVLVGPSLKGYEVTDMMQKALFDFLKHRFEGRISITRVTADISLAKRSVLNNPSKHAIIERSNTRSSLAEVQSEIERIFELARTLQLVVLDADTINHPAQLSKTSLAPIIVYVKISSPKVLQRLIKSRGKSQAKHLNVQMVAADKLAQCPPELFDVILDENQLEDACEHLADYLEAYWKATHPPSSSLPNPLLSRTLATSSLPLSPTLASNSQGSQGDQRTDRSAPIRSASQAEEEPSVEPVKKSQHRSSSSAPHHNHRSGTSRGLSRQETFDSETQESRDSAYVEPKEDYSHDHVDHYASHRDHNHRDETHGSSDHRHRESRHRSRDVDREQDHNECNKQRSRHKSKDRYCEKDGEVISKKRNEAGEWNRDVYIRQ
T2 sequence (P54289 25-956 partner limits assumed): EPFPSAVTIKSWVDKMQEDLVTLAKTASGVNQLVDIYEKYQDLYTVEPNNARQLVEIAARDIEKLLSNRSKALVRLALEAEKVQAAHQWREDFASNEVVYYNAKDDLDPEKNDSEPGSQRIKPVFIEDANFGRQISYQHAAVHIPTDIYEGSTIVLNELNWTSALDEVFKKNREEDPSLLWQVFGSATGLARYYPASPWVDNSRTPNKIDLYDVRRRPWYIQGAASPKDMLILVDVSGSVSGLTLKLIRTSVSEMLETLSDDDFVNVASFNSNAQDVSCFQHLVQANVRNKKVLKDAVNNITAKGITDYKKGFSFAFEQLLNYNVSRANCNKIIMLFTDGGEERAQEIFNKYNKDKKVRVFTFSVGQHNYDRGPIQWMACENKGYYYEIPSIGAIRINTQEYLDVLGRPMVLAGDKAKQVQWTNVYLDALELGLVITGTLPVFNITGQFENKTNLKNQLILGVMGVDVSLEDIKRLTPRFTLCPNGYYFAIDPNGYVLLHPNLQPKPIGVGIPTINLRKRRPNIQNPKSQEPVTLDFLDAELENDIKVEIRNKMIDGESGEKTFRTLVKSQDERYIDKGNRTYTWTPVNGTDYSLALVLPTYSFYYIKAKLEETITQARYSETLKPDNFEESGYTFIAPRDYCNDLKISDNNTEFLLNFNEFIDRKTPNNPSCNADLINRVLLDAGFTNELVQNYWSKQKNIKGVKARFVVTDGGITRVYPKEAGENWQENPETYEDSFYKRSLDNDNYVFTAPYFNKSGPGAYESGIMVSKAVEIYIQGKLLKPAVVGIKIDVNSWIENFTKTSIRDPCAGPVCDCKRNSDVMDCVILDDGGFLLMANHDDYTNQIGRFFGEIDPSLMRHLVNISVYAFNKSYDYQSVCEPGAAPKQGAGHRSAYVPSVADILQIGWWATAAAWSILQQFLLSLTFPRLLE
T2 sequence (P54289 957-1103 partner limits assumed): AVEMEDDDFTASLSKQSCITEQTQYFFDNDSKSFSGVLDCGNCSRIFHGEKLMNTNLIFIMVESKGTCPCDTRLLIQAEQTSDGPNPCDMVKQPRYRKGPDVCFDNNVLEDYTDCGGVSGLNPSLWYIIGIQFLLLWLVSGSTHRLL
T1 sequence (P22460 whole entry): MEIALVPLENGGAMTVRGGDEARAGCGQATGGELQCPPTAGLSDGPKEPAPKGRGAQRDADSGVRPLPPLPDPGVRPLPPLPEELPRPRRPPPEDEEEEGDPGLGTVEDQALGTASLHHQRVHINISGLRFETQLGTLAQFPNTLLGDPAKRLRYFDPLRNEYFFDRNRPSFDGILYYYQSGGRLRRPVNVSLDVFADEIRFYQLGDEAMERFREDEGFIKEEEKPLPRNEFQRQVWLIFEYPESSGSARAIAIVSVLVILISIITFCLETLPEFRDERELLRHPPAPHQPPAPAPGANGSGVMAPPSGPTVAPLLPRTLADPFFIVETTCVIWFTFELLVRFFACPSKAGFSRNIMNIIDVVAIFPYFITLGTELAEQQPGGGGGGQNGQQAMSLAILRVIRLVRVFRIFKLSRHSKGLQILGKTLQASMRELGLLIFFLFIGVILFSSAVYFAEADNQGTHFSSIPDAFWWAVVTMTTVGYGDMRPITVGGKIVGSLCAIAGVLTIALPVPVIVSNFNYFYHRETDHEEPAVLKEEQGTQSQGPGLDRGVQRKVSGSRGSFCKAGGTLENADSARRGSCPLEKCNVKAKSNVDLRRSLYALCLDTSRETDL

O=C1NCc2c1ncnc2-c1cc(-c2cc(Cl)cc(OC(F)(F)F)c2)n(-c2cccnc2)n1 [Compound A, 4-[5-[3-Chloro-5-(trifluoromethoxy)phenyl]-1-(pyridin-3-yl)-1H-pyrazol-3-yl]-5,6-dihydro-7H-pyrrolo[3,4-d]pyrimidin-7-one]
interaction with ion channels of Kav [1]: do not interact with other ion channels of Nav, Kav, and Cav substantially
interaction with ion channels of Cav [2]: do not interact with other ion channels of Nav, Kav, and Cav substantially
pKa [3]: 2.3
mortality ([4]; 3, 10 or 2 x 50 mg/kg b.w./day for 4 weeks, treatment and recovery period): None
signs of systemic intolerance (behaviour, external appearance, faeces) ([4]; 3, 10 or 2 x 50 mg/kg b.w./day oral for 4 weeks and 4-week recovery): No compound A-related signs of systemic intolerance
eyes and auditory acuity ([4]; 4 weeks): No changes or adverse effects
haematology, clinical biochemistry, urinalysis, ophthamological and auditory examination, organ weights, bone marrow, histopathology ([4]; 4 weeks): No compound A-related influences
macroscopic inspection at necropsy ([4]; 4 weeks): did not reveal any morphological changes
histopathological examination ([4]; end of main study and of 4-week recovery period): did not reveal any Compound A-related morphological changes
body weight and body weight gain; food and drinking water consumption ([4]; treatment period): No compound A-related influence
